According to US20140242093A1, “METHODS AND COMPOSITIONS FOR MODULATING THE INNATE IMMUNE RESPONSE AND/OR MYOGENESIS IN A MAMMALIAN SUBJECT” (FRED HUTCHINSON CANCER RESEARCH CENTER, priority 2011, published 2014):

Tested on: control human primary myoblasts
Assay: Expression microarray of primary myoblasts transduced with lentivirus carrying DUX4-fl, DUX4-s or GFP
Experimental: Primary human myoblasts were collected and cultured as previously described (Snider et al., 2010). Primary myoblasts were maintained at or below 70% confluency for proliferation. For differentiation, cells were allowed to reach 95-100% confluency in growth medium. Once confluency was reached, the cells were changed to differentiation medium (F10 media supplemented with 1% horse serum, 10 μg/mL insulin, and 10 μg/mL transferrin, penicillin/streptomycin) and maintained for 4 days. Human RD cells were grown in DMEM in 10% bovine calf serum (Hyclone) and penicillin/streptomycin. The primary myoblasts were transduced with lentivirus carrying DUX-fl, DUX4- or GFP (MOI=15).
Expression microarrays were performed on the transduced cells at 24 hours after transduction as follows. […] Samples were analyzed by Illumina Human Whole Genome microarrays. Probe intensities were corrected, normalized, and summarized by the Lumi package of Bioconductor (Du et al., 2008). Differentially expressed genes were identified by the LIMMA package of Bioconductor (Wettenhall and Smyth, 2004). Gene set enrichment analysis (GSEA) was performed using the Bioconductor GOstats package (Falcon and Gentleman, 2007).

“DUX4-fl: full-length DUX4 protein (SEQ ID NO:110), expressed from lentiviral or pCS2 vectors or in vitro translated” was tested, and the “fc of DENND5A (expression array)” value (Refseq NM_015213.2) was −1.037, the “fc of FEM1B (expression array)” value (Refseq NM_015322.3) was −0.5708 and the “fc of PANX1 (expression array)” value (Refseq NM_015368.3) was −0.114. The “fc of AASDHPPT (expression array)” value (Refseq NM_015423.2) was −0.238, the MTHFD1L fc (Refseq NM_015440.3) was −1.173 and the C2orf32 fc (Refseq NM_015463.1) was −1.1. For the same substance, the PVRL3 expression fc (Refseq NM_015480.1) was 2.223, the NGDN expression fc (Refseq NM_015514.1) was 2.058 and the “fc of RRM2B (expression array)” value (Refseq NM_015713.3) was −1.01. For the same substance, the MBD2 expression fc (Refseq NM_015832.3) was 1.818, the “fc of MBTPS2 (expression array)” value (Refseq NM_015884.1) was −0.6539 and the ARS2 expression fc (Refseq NM_015908.4) was 2.602. For the same substance, the GSTK1 fc (Refseq NM_015917.1) was −1.079, the NOP58 expression fc (Refseq NM_015934.3) was 1.887 and the CRLF3 expression fc (Refseq NM_015986.2) was 1.912. The “fc of TTC15 (expression array)” value (Refseq NM_016030.5) was −1.015, the ISOC1 expression fc (Refseq NM_016048.1) was 2.003 and the MED31 expression fc (Refseq NM_016060.2) was 2.055. For the same substance, the “fc of TRPV2 (expression array)” value (Refseq NM_016113.3) was −1.02, the CERCAM fc (Refseq NM_016174.3) was −1.121 and the DBR1 expression fc (Refseq NM_016216.2) was 3.379. For the same substance, the POLR3K expression fc (Refseq NM_016310.2) was 1.95, the HERC5 expression fc (Refseq NM_016323.2, cultured human skeletal muscle) was −3.202 and the “fc of CENPF (expression array)” value (Refseq NM_016343.3) was −0.4122. The CWC15 expression fc (Refseq NM_016403.3) was 2.643, the “fc of TMEM9 (expression array)” value (Refseq NM_016456.2) was −1.008 and the RAB6B expression fc (Refseq NM_016577.3) was 3.17. For the same substance, the SLC15A3 expression fc (Refseq NM_016582.1, cultured human skeletal muscle) was −3.754, the FKBP11 fc (Refseq NM_016594.1) was −1.125 and the ARMCX1 fc (Refseq NM_016608.1) was −1.116. The C8orf55 fc (Refseq NM_016647.2) was −1.082, the HOXC13 fc (Refseq NM_017410.2) was −1.107 and the USP18 expression fc (Refseq NM_017414.3, cultured human skeletal muscle) was −2.497. The PARP14 expression fc (Refseq NM_017554.1, cultured human skeletal muscle) was −2.825, the “fc of SLC43A3 (expression array)” value (Refseq NM_017611.2) was −1.026 and the NOTCH1 fc (Refseq NM_017617.3) was −1.08. For the same substance, the KIF21A expression fc (Refseq NM_017641.2) was 1.837, the “fc of AHI1 (expression array)” value (Refseq NM_017651.3) was −0.5927 and the SAMD9 expression fc (Refseq NM_017654.2, cultured human skeletal muscle) was −2.863. For the same substance, the FAM46C expression fc (Refseq NM_017709.3) was 2.389, the RETSAT expression fc (Refseq NM_017750.2, cultured human skeletal muscle) was −1.929 and the LYAR expression fc (Refseq NM_017816.1) was 1.977. The ZSCAN2 expression fc (Refseq NM_017894.4) was 2.151, the HERC6 expression fc (Refseq NM_017912.3, cultured human skeletal muscle) was −3.728 and the PID1 fc (Refseq NM_017933.3) was −1.128. The ZNHIT6 expression fc (Refseq NM_017953.2) was 3.519, the C14orf102 expression fc (Refseq NM_017970.2) was 2.529 and the “fc of WIPI1 (expression array)” value (Refseq NM_017983.4) was −1.022. For the same substance, the RNF31 fc (Refseq NM_017999.4) was −1.08, the FRMD4A fc (Refseq NM_018027.3) was −1.164 and the FAM90A1 expression fc (Refseq NM_018088.3) was 3.636. For the same substance, the “fc of RBM23 (expression array)” value (Refseq NM_018107.4) was −1.022, the PNPO fc (Refseq NM_018129.2) was −1.13 and the SEC61A2 expression fc (Refseq NM_018144.2) was 1.837. It also gave an NADSYN1 fc (Refseq NM_018161.4) of −1.086, a TMEM140 expression fc (Refseq NM_018295.2, cultured human skeletal muscle) of −2.946 and a BRIX1 expression fc (Refseq NM_018321.3) of 1.886. It also gave a DRAM1 fc (Refseq NM_018370.2) of −1.087, an LSG1 expression fc (Refseq NM_018385.1) of 1.994 and a TBC1D2 fc (Refseq NM_018421.2) of −1.075. For the same substance, the RRN3 expression fc (Refseq NM_018427.3) was 2.068, the ZNF302 fc (Refseq NM_018443.2) was −1.164 and the “fc of GLT8D1 (expression array)” value (Refseq NM_018446.2) was −1.021. For the same substance, the BEX1 fc (Refseq NM_018476.3) was −1.097, the SLC35E3 fc (Refseq NM_018656.2) was −1.132 and the DEFB103B expression fc (Refseq NM_018661.3) was 2.499. The “fc of SULF2 (expression array)” value (Refseq NM_018837.2) was −1.048, the PDE7B fc (Refseq NM_018945.3) was −1.116 and the NANS expression fc (Refseq NM_018946.2) was 1.872. The POLR1B expression fc (Refseq NM_019014.3) was 1.904, the CCNJ expression fc (Refseq NM_019084.2) was 2.695 and the “fc of HOXA5 (expression array)” value (Refseq NM_019102.2) was −1.005. It also gave a PNO1 expression fc (Refseq NM_020143.2) of 2.151, a KTELC1 fc (Refseq NM_020231.3) of −1.073 and a C1orf63 expression fc (Refseq NM_020317.3) of 2.19. For the same substance, the ZMIZ1 fc (Refseq NM_020338.2) was −1.165, the TRIM49 expression fc (Refseq NM_020358.2) was 6.551 and the LYRM1 fc (Refseq NM_020424.2) was −1.126. It also gave an SLC44A2 fc (Refseq NM_020428.2) of −1.158 and a PCBP3 fc (Refseq NM_020528.1) of −1.122.
